Data published in patent publication US4794122A, “Novel benzimidazolyl-thiomethyl-benzothiazoles” (Uclaf; Roussel, priority 1986, dated 1988).

Target: T1, 5-lipoxygenase (Rattus norvegicus, UniProt P12527)
T1 construct: prelabelled rat peritoneal neutrophils; endogenous in cells; host or cells: rat peritoneal neutrophils
T1 sequence (P12527 1-673): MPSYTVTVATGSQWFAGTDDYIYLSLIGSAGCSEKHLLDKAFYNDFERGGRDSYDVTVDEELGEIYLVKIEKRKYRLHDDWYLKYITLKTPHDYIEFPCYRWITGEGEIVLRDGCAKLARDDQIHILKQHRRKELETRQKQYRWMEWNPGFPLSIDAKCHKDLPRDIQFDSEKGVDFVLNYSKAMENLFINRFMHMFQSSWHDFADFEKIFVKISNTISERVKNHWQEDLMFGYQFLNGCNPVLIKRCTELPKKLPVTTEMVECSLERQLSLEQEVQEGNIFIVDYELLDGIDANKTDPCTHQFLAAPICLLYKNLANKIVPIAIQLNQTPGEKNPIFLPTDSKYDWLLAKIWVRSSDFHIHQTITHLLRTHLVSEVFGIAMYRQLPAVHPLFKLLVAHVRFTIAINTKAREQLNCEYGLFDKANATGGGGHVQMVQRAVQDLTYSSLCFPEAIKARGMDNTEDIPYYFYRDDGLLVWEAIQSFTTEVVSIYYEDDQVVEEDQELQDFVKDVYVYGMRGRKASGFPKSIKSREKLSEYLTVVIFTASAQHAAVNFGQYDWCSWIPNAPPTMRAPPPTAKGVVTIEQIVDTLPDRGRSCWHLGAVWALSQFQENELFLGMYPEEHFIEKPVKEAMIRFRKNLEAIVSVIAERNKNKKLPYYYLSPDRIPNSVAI
Experiment: Inhibition of Ca++ ionophore (A23187)-induced release of 5-lipoxygenase products (leukotriene B4 and 5-HETE) from [14C]-arachidonic acid prelabelled rat peritoneal neutrophils
Assay type: cell-based
Conditions: A23187-induced release of leukotriene B4 and 5-HETE, determined graphically from dose response curves, read-out: micro molecular concentration of the compounds causing a 50% inhibition of the control response for 5-lipoxygenase
Description: Inhibition of Ca^++ ionophore (A23187)-induced release of 5-lipoxygenase products (leukotriene B4 and 5-HETE) from [^14 C]-arachidonic acid prelabelled rat peritoneal neutrophils was determined by a modification of the method of Ahnfelt-Ronne et al [Biochemical Pharmacology, Vol. 31, (1982), No. 16, p. 2619-2624].

IC50 [nM]	SMILES
3500	c1ccc2[nH]c(SCc3nc4ccccc4s3)nc2c1 [Example 1, 2-(1H-benzimidazol-2-yl-thiomethyl)-benzothiazole]
590	Clc1ccc2[nH]c(SCc3nc4ccccc4s3)nc2c1 [Example 2, 2-(5-chloro-1H-benzimidazol-2-yl-thiomethyl)benzothiazole]
230	Clc1cc2nc(SCc3nc4ccccc4s3)[nH]c2cc1Cl [Example 3, 2-(5,6-dichloro-1H-benzimidazol-2-yl-thiomethyl)benzothiazole]
